# Results taken from patent US11274083B2, “Substituted thiophenyl uracils, salts thereof and the use thereof as herbicidal agents” (Syngenta Crop Protection AG, priority 2017, dated 2022).
# Columns and labels:
# Assay type in all cases: in vivo
# Oryza sativa = test: Crop compatibility post-emergence, greenhouse pot test
# In short: (§1)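 Crop tolerance is rated as visual percent injury relative to untreated plants, about 3 weeks after a post-emergence foliar spray at the one-leaf stage. Sprays use WP or EC formulations diluted in water with 0.5% additive at 600 L/ha; plants are grown in sandy loam pots under greenhouse conditions.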
# Triticum aestivum = test: as above; details: application rate 20 g/ha
# In short: as §1
# Matricaria inodora [1] = test: Herbicidal action pre-emergence, greenhouse pot test
# Excerpt: Seeds of mono- and dicotyledonous weeds and crop plants were laid out in plastic or organic plant pots and covered with soil. The compounds of the invention formulated in the form of wettable powders (WP) or as emulsion concentrates (EC) were then applied to the surface of the covering soil as an aqueous suspension or emulsion with addition of 0.5% additive at a water application rate equivalent to 600 L/ha. After the treatment, the pots were placed in a greenhouse and kept under good growth conditions for the test plants. After about 3 weeks, the efficacy of the preparations was scored visually as a percentage by comparison with untreated controls. For example, 100% efficacy=plants have died. 0% efficacy=like control plants. Tables B1 to B17 below show the efficacies of selected compounds of the general formula (I) […] aforementioned trial method.
# Amaranthus retroflexus [2] = test: Herbicidal action post-emergence, greenhouse pot test
# In short: (§2)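 Visual efficacy scoring (0% like untreated, 100% plant death) about 3 weeks post-treatment. Application, at ≤80 g/ha, was a post-emergence spray of wettable-powder or emulsion-concentrate formulations in water with 0.5% additive at 600 L/ha onto one-leaf-stage plants grown 2–3 weeks from seed in sandy loam.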
# Alopecurus myosuroides [3] = test: as above; details: application rate 80 g/ha, scored visually after about 3 weeks vs untreated controls
# In short: as §2
# Echinochloa crus-galli [4] = test: as above; details: application rate 80 g/ha
# In short: as §2
# Abutilon theophrasti [5] = test: as above
# In short: as §2
# Lolium rigidum [6] = test: as above; details: application rate 80 g/ha
# In short: as §2
# Stellaria media [7] = test: as above; details: application rate 80 g/ha
# In short: as §2
# Viola tricolor [8] = test: as above
# In short: as §2
# Matricaria inodora [9] = test: as above
# In short: as §2
# Veronica persica [10] = test: as above; details: application rate 80 g/ha
# In short: as §2
# Setaria viridis [11] = test: as above
# In short: as §2
# Polygonum convolvulus [12] = test: as above
# In short: as §2
# Pharbitis purpurea [13] = test: as above
# In short: as §2
# Amaranthus retroflexus [14] = test: Herbicidal action pre-emergence, greenhouse pot test
# Excerpt: (§3) Seeds of mono- and dicotyledonous weeds and crop plants were laid out in plastic or organic plant pots and covered with soil. The compounds of the invention formulated in the form of wettable powders (WP) or as emulsion concentrates (EC) were then applied to the surface of the covering soil as an aqueous suspension or emulsion with addition of 0.5% additive at a water application rate equivalent to 600 L/ha. After the treatment, the pots were placed in a greenhouse and kept under good growth conditions for the test plants. After about 3 weeks, the efficacy of the preparations was scored visually as a percentage by comparison with untreated controls. For example, 100% efficacy=plants have died. 0% efficacy=like control plants. Tables B1 to B17 below show the efficacies of selected compounds of the general formula (I) according to tables I.1 to I.50 on various harmful plants and an application rate corresponding to 320 g/ha or lower that were obtained by the aforementioned trial method.
# Hordeum murinum = test: as above; details: application rate 320 g/ha
# Excerpt: as §3
# Alopecurus myosuroides [15] = test: as above; details: application rate 320 g/ha
# Excerpt: as §3
# Echinochloa crus-galli [16] = test: as above; details: application rate 320 g/ha
# Excerpt: as §3
# Abutilon theophrasti [17] = test: as above
# Excerpt: as §3
# Lolium rigidum [18] = test: as above; details: application rate 320 g/ha
# Excerpt: as §3
# Stellaria media [19] = test: as above
# Excerpt: as §3
# Viola tricolor [20] = test: as above
# Excerpt: as §3
# Cyperus esculentus = test: as above; details: application rate 320 g/ha
# Excerpt: as §3
# Veronica persica [21] = test: as above
# Excerpt: as §3
# Setaria viridis [22] = test: as above
# Excerpt: as §3
# Polygonum convolvulus [23] = test: as above
# Excerpt: as §3
# Pharbitis purpurea [24] = test: as above; details: application rate 320 g/ha
# Excerpt: as §3
# Avena fatua = test: as above; details: application rate 320 g/ha
# Excerpt: as §3
# Zea mays = test: Crop compatibility post-emergence, greenhouse pot test
# In short: as §1
Compound,Triticum aestivum (Efficacy in %) (Triticum aestivum),Matricaria inodora (Efficacy in %) (Matricaria inodora [1]; application rate 80 g/ha),Amaranthus retroflexus (Efficacy in %) (Amaranthus retroflexus [2]; application rate 80 g/ha),Alopecurus myosuroides (Efficacy in %) (Alopecurus myosuroides [3]),Echinochloa crus-galli (Efficacy in %) (Echinochloa crus-galli [4]),Abutilon theophrasti (Efficacy in %) (Abutilon theophrasti [5]; application rate 80 g/ha),Stellaria media (Efficacy in %) (Stellaria media [7]),Matricaria inodora (Efficacy in %) (Matricaria inodora [9]; application rate 80 g/ha),Veronica persica (Efficacy in %) (Veronica persica [10]),Setaria viridis (Efficacy in %) (Setaria viridis [11]; application rate 80 g/ha),Polygonum convolvulus (Efficacy in %) (Polygonum convolvulus [12]; application rate 80 g/ha),Pharbitis purpurea (Efficacy in %) (Pharbitis purpurea [13]; application rate 80 g/ha),Amaranthus retroflexus (Efficacy in %) (Amaranthus retroflexus [14]; application rate 80 g/ha),Hordeum murinum (Efficacy in %) (Hordeum murinum),Alopecurus myosuroides (Efficacy in %) (Alopecurus myosuroides [15]),Echinochloa crus-galli (Efficacy in %) (Echinochloa crus-galli [16]),Lolium rigidum (Efficacy in %) (Lolium rigidum [18]),Stellaria media (Efficacy in %) (Stellaria media [19]; application rate 80 g/ha),Veronica persica (Efficacy in %) (Veronica persica [21]; application rate 320 g/ha),Pharbitis purpurea (Efficacy in %) (Pharbitis purpurea [24]),further results
COC(=O)CC(C)OC(=O)C(C)Sc1cc(-n2c(=O)cc(C(F)(F)F)n(C)c2=O)c(F)cc1Cl (stereo not drawn) [I.1-22],20%,100%,100%,80%,100%,100%,100%,100%,100%,100%,100%,100%,100%,100%,80%,100%,100%,100%,100%,100%,Oryza sativa (Efficacy in %) (Oryza sativa; application rate 5 g/ha): 0%; Lolium rigidum (Efficacy in %) (Lolium rigidum [6]): 90%; Viola tricolor (Efficacy in %) (Viola tricolor [8]; application rate 80 g/ha): 100%; Abutilon theophrasti (Efficacy in %) (Abutilon theophrasti [17]; application rate 80 g/ha): 100%; Viola tricolor (Efficacy in %) (Viola tricolor [20]; application rate 80 g/ha): 100%; Cyperus esculentus (Efficacy in %) (Cyperus esculentus): 90%; Setaria viridis (Efficacy in %) (Setaria viridis [22]; application rate 80 g/ha): 100%; Polygonum convolvulus (Efficacy in %) (Polygonum convolvulus [23]; application rate 80 g/ha): 100%
COC(=O)C(C)OC(=O)C(C)Sc1cc(-n2c(=O)cc(C(F)(F)F)n(C)c2=O)c(F)cc1Cl (stereo not drawn) [I.1-72],20%,100%,–,–,100%,–,100%,100%,100%,–,100%,–,–,80%,–,100%,–,100%,–,100%,Oryza sativa (Efficacy in %) (Oryza sativa; application rate 20 g/ha): 10%; Amaranthus retroflexus (Efficacy in %) (Amaranthus retroflexus [2]; application rate 20 g/ha): 100%; Abutilon theophrasti (Efficacy in %) (Abutilon theophrasti [5]; application rate 20 g/ha): 100%; Viola tricolor (Efficacy in %) (Viola tricolor [8]; application rate 80 g/ha): 100%; Setaria viridis (Efficacy in %) (Setaria viridis [11]; application rate 20 g/ha): 100%; Pharbitis purpurea (Efficacy in %) (Pharbitis purpurea [13]; application rate 20 g/ha): 100%; Amaranthus retroflexus (Efficacy in %) (Amaranthus retroflexus [14]; application rate 20 g/ha): 100%; Avena fatua (Efficacy in %) (Avena fatua): 90%; Abutilon theophrasti (Efficacy in %) (Abutilon theophrasti [17]; application rate 80 g/ha): 100%; Viola tricolor (Efficacy in %) (Viola tricolor [20]; application rate 80 g/ha): 100%; Cyperus esculentus (Efficacy in %) (Cyperus esculentus): 100%; Veronica persica (Efficacy in %) (Veronica persica [21]; application rate 80 g/ha): 100%; Setaria viridis (Efficacy in %) (Setaria viridis [22]; application rate 80 g/ha): 100%; Polygonum convolvulus (Efficacy in %) (Polygonum convolvulus [23]; application rate 80 g/ha): 100%
COC(=O)C(C)(C)OC(=O)C(C)Sc1cc(-n2c(=O)cc(C(F)(F)F)n(C)c2=O)c(F)cc1Cl (stereo not drawn) [I.1-132],10%,–,100%,80%,100%,100%,100%,90%,100%,100%,100%,100%,100%,80%,100%,100%,100%,–,100%,100%,Zea mays (Efficacy in %) (Zea mays; application rate 20 g/ha): 20%; Oryza sativa (Efficacy in %) (Oryza sativa; application rate 80 g/ha): 20%; Matricaria inodora (Efficacy in %) (Matricaria inodora [1]; application rate 320 g/ha): 100%; Avena fatua (Efficacy in %) (Avena fatua): 90%; Abutilon theophrasti (Efficacy in %) (Abutilon theophrasti [17]; application rate 320 g/ha): 100%; Stellaria media (Efficacy in %) (Stellaria media [19]; application rate 320 g/ha): 100%; Viola tricolor (Efficacy in %) (Viola tricolor [20]; application rate 320 g/ha): 100%; Setaria viridis (Efficacy in %) (Setaria viridis [22]; application rate 320 g/ha): 100%; Polygonum convolvulus (Efficacy in %) (Polygonum convolvulus [23]; application rate 320 g/ha): 100%

# Continued, in another order:
Triticum aestivum (Efficacy in %) (Triticum aestivum),Compound,Matricaria inodora (Efficacy in %) (Matricaria inodora [1]; application rate 80 g/ha),Amaranthus retroflexus (Efficacy in %) (Amaranthus retroflexus [2]; application rate 80 g/ha),Alopecurus myosuroides (Efficacy in %) (Alopecurus myosuroides [3]),Echinochloa crus-galli (Efficacy in %) (Echinochloa crus-galli [4]),Abutilon theophrasti (Efficacy in %) (Abutilon theophrasti [5]; application rate 80 g/ha),Stellaria media (Efficacy in %) (Stellaria media [7]),Matricaria inodora (Efficacy in %) (Matricaria inodora [9]; application rate 80 g/ha),Veronica persica (Efficacy in %) (Veronica persica [10]),Setaria viridis (Efficacy in %) (Setaria viridis [11]; application rate 80 g/ha),Polygonum convolvulus (Efficacy in %) (Polygonum convolvulus [12]; application rate 80 g/ha),Pharbitis purpurea (Efficacy in %) (Pharbitis purpurea [13]; application rate 80 g/ha),Amaranthus retroflexus (Efficacy in %) (Amaranthus retroflexus [14]; application rate 80 g/ha),Hordeum murinum (Efficacy in %) (Hordeum murinum),Alopecurus myosuroides (Efficacy in %) (Alopecurus myosuroides [15]),Echinochloa crus-galli (Efficacy in %) (Echinochloa crus-galli [16]),Lolium rigidum (Efficacy in %) (Lolium rigidum [18]),Stellaria media (Efficacy in %) (Stellaria media [19]; application rate 80 g/ha),Veronica persica (Efficacy in %) (Veronica persica [21]; application rate 320 g/ha),Pharbitis purpurea (Efficacy in %) (Pharbitis purpurea [24]),further results
20%,CC(Sc1cc(-n2c(=O)cc(C(F)(F)F)n(C)c2=O)c(F)cc1Cl)C(=O)OC1CCOC1=O (stereo not drawn) [I.1-141],–,100%,90%,100%,100%,100%,100%,100%,–,100%,100%,100%,100%,80%,100%,100%,–,100%,100%,Zea mays (Efficacy in %) (Zea mays; application rate 5 g/ha): 10%; Oryza sativa (Efficacy in %) (Oryza sativa; application rate 20 g/ha): 0%; Matricaria inodora (Efficacy in %) (Matricaria inodora [1]; application rate 320 g/ha): 100%; Setaria viridis (Efficacy in %) (Setaria viridis [11]; application rate 20 g/ha): 100%; Avena fatua (Efficacy in %) (Avena fatua): 80%; Abutilon theophrasti (Efficacy in %) (Abutilon theophrasti [17]; application rate 320 g/ha): 100%; Stellaria media (Efficacy in %) (Stellaria media [19]; application rate 320 g/ha): 100%; Viola tricolor (Efficacy in %) (Viola tricolor [20]; application rate 320 g/ha): 100%; Setaria viridis (Efficacy in %) (Setaria viridis [22]; application rate 320 g/ha): 100%; Polygonum convolvulus (Efficacy in %) (Polygonum convolvulus [23]; application rate 320 g/ha): 100%
20%,CCOC(=O)CC(C)OC(=O)CSc1cc(-n2c(=O)cc(C(F)(F)F)n(C)c2=O)c(F)cc1Cl (stereo not drawn) [I.8-23],100%,100%,–,100%,100%,100%,–,100%,100%,–,–,100%,80%,–,100%,90%,100%,100%,100%,Oryza sativa (Efficacy in %) (Oryza sativa; application rate 5 g/ha): 20%; Viola tricolor (Efficacy in %) (Viola tricolor [8]; application rate 20 g/ha): 100%; Matricaria inodora (Efficacy in %) (Matricaria inodora [9]; application rate 20 g/ha): 100%; Polygonum convolvulus (Efficacy in %) (Polygonum convolvulus [12]; application rate 20 g/ha): 100%; Pharbitis purpurea (Efficacy in %) (Pharbitis purpurea [13]; application rate 20 g/ha): 100%; Abutilon theophrasti (Efficacy in %) (Abutilon theophrasti [17]; application rate 320 g/ha): 100%; Viola tricolor (Efficacy in %) (Viola tricolor [20]; application rate 320 g/ha): 100%; Cyperus esculentus (Efficacy in %) (Cyperus esculentus): 90%; Setaria viridis (Efficacy in %) (Setaria viridis [22]; application rate 320 g/ha): 100%; Polygonum convolvulus (Efficacy in %) (Polygonum convolvulus [23]; application rate 320 g/ha): 100%
